Experimental data published in patent publication US20160151486A1, “CD40 Signalling Inhibitor and a Further Compound, Wherein the Further Compound is a Bile Acid, a Bile Acid Derivative, an TGR5-Receptor Agonist, an FXR Agonist or a Combination Thereof, for the Treatment of Chronic Inflammation, and the Prevention of Gastrointestinal Cancer or Fibrosis” (Fast Forward Pharmaceuticals B.V., priority 2013, published 2016).

Experiments:
[1] = tested on: peripheral blood mononuclear cells (PBMC); assay: Cytokine secretion by PBMC stimulated with megaCD40L (after IFN-γ); format: cell-based, human; conditions: megaCD40L stimulus
Protocol: (§1) PBMC were freshly isolated from heparinized human blood using Fycoll density gradient centrifugation (Histopaque; Sigma Diagnostics). PBMC were cultured in RPMI containing 10% FCS in round-bottom 96-well plates at a concentration of 5×10E5 cells/mL. Two different stimuli were used to induce cytokine secretion from PBMC: • 1. PBMC were cultured in the presence of IFN-γ (250 U/mL) for 24 hours to induce upregulation of CD40. The CD40 pathway was subsequently activated for 24 hours with megaCD40L (100 ng/mL, Enzo Life Sciences). • 2. PBMC were cultured in the presence of IFN-γ for 24 hours to induce upregulation of CD40. Cells were subsequently stimulated for 24 hours with megaCD40L (100 ng/mL) and LPS (100 ng/mL).
(§2) Stimulated PBMC were cultured in the absence or presence of variable concentrations of PG102 (5, 10 and 100 ng/mL) and/or 6-ECDCA (0.1, 1 and 5 μM). PG102 was added simultaneously with the stimulus. In contrast, 6-ECDCA was added 3 hours before adding the stimulus. At the end of the culture period, supernatants were collected and stored at −80° C. until cytokine analysis was performed. The BD cytometric Bead Array (CBA) Human Inflammatory Cytokines Kit (BD Biosciences) was used to measure IL-1β, IL-8, IL-6, TNF and IL-12p70 levels in the culture supernatants. The assay was performed according to the manufacturer's instructions. In brief, capture beads for the cytokines of interest were mixed with supernatant or human inflammatory cytokine standards and PE detection reagent. Samples were incubated for 3 hours at room temperature in the dark. Subsequently, samples were washed and analyzed on a FACS CANTO II cytometer (BD Biosciences). Data was analyzed using de FCAP Array software (BD Biosciences).

[2] = tested on: peripheral blood mononuclear cells (PBMC); assay: Cytokine secretion by PBMC stimulated with megaCD40L and LPS (after IFN-γ); format: cell-based, human
Protocol: as §1, §2

C57/Bl6 wild type mice = assay: DSS-induced colitis mouse model; format: in vivo
Protocol: Colitis was induced in C57/Bl6 wild type mice by administration of 2.5% (wt/vol) Dextran Sodium Sulphate (DSS; MW. 36000-50000 Da, MP Biochemicals Inc) in drinking water for 8 days. Pharmacological activation of FXR was accomplished by treatment with 6-ethyl-chenodeoxycholic acid (6-ECDCA). 6-ECDCA (10 mg/kg/day) or vehicle were administered by oral gavage for three days prior to the start of DSS-treatment, and continued until the end of the DSS-treatment. At the second day of DSS treatment (day 4 of 6-ECDCA treatment), mice were given an intraperitoneal (i.p.) injection with 250 μg of the hamster antibody against mouse CD40L, MR-1, or control IgG (LEAF™ Purified Armenian Hamster IgG Isotype Ctrl Antibody, Biolegend).
There were 5 treatment groups (n=10 mice/group) in the experiment: […]
Daily changes in body weight were assessed and the body weight at day 2-11 was expressed relative to the body weight at day 1. […] 4 h after FITC administration, mice were sacrificed and the amount of fluorescence in the blood was determined as a marker for permeability. The colon was isolated and colon length was measured. […] Granulocytes were identified based on GR-1 and CD11b expression and expressed as percentage of living cells in the spleen. […] Culture supernatants were collected and TNF was measured using an ELISA.

[3] = tested on: LPS-induced TNF production; conditions: cited from earlier work
[4] = tested on: chemically induced intestinal inflammation; conditions: in vivo; cited from earlier work
[5] = 6-ECDCA 5 μM, megaCD40L and LPS stimulus

CC[C@H]1[C@@H](O)[C@@H]2[C@H](CC[C@]3(C)[C@@H]([C@H](C)CCC(=O)O)CC[C@@H]23)[C@@]2(C)CC[C@@H](O)C[C@@H]12 [6-ECDCA, 6-ethyl-chenodeoxycholic acid]
inhibition of IL-1β release ([1]; 6-ECDCA 5 μM): 35%
inhibition of IL-6 release ([1]; 6-ECDCA 5 μM): 18%
inhibition of IL-8 release ([1]; 6-ECDCA 5 μM): 17%
inhibition of IL-12p70 release ([1]; 6-ECDCA 5 μM): 20%
inhibition of TNF release ([1]; 6-ECDCA 5 μM): 14%
release of TNF, IL-6, IL-8, IL-1β and IL-12p70 ([1]; 6-ECDCA alone at 0.1 or 1 μM): did not inhibit
inhibition of IL-1β [2, 5]: 12%
inhibition of IL-6 [2, 5]: 0%
inhibition of IL-8 [2, 5]: 9%
inhibition of IL-12p70 [2, 5]: 22%
inhibition of TNF [2, 5]: 21%
inhibiting proinflammatory cytokine release ([2]; activation of the CD40 pathway alone or in combination with the TLR-4 pathway): not very effective
colitis disease process induced by DSS (C57/Bl6 wild type mice; 6-ECDCA 10 mg/kg/day oral gavage, MR-1 250 μg i.p. once, second day of DSS): interfered with the colitis disease process
granulocytes in the spleen (GR-1, CD11b; FACS) (C57/Bl6 wild type mice; end of experiment, FIG. 11): increase in granulocytes
LPS-induced TNF production [3]: inhibit LPS-induced TNF production in a dose-dependent fashion
chemically induced intestinal inflammation [4]: interfere with chemically induced intestinal inflammation
